According to PubChem BioAssay (NCI):
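Step 1: Grow cells in 96-well plates. Step 2: Expose to compound for 48 hours at 5 concentrations. Step 3: Interpolate endpoints linearly; if unreached, use highest concentration. GI50 marks 50% less growth. TGI: concentration producing complete growth inhibition.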

Key:
Assay in all cases: DTP human tumour cell line panel, 48 h
786-0 renal = test system: 786-0 renal
BT-549 breast = test system: BT-549 breast
CAKI-1 renal = test system: CAKI-1 renal
KM12 colon = test system: KM12 colon
M14 melanoma = test system: M14 melanoma
MALME-3M melanoma = test system: MALME-3M melanoma
NCI-H460 lung = test system: NCI-H460 lung
OVCAR-8 ovarian = test system: OVCAR-8 ovarian
SF-295 CNS = test system: SF-295 CNS
UACC-62 melanoma = test system: UACC-62 melanoma

SMILES: CCCCNC(=O)Oc1ccc(/C(=C(/C)Cc2ccc(OC)cc2)c2ccc(OCCN3CCCC3)cc2)cc1
- GI50 (786-0 renal): 1.51 µM
- TGI (786-0 renal): 2.91 µM
- GI50 (BT-549 breast): 1.52 µM
- TGI (BT-549 breast): 2.98 µM
- GI50 (CAKI-1 renal): 1.63 µM
- TGI (CAKI-1 renal): 3.5 µM
- GI50 (KM12 colon): 2.03 µM
- TGI (KM12 colon): 4.49 µM
- GI50 (M14 melanoma): 1.81 µM
- TGI (M14 melanoma): 3.48 µM
- GI50 (MALME-3M melanoma): 1.7 µM
- TGI (MALME-3M melanoma): 3.28 µM
- GI50 (NCI-H460 lung): 1.81 µM
- TGI (NCI-H460 lung): 3.34 µM
- GI50 (OVCAR-8 ovarian): 2.04 µM
- TGI (OVCAR-8 ovarian): 4.38 µM
- GI50 (SF-295 CNS): 1.65 µM
- TGI (SF-295 CNS): 3.14 µM
- GI50 (UACC-62 melanoma): 1.94 µM
- TGI (UACC-62 melanoma): 3.59 µM

SMILES: Cc1cc(N2CCCC2)nc(NCc2cc(Nc3ccnc4cc(Cl)ccc34)ccc2F)n1
- GI50 (786-0 renal): 1.34 µM
- TGI (786-0 renal): 2.84 µM
- GI50 (BT-549 breast): 1.54 µM
- TGI (BT-549 breast): 3.3 µM
- GI50 (CAKI-1 renal): 1.38 µM
- TGI (CAKI-1 renal): 2.86 µM
- GI50 (KM12 colon): 1.52 µM
- TGI (KM12 colon): 3.01 µM
- GI50 (M14 melanoma): 1.37 µM
- TGI (M14 melanoma): 2.85 µM
- GI50 (NCI-H460 lung): 1.23 µM
- TGI (NCI-H460 lung): 2.86 µM
- GI50 (OVCAR-8 ovarian): 1.69 µM
- TGI (OVCAR-8 ovarian): 3.27 µM
- GI50 (SF-295 CNS): 1.16 µM
- TGI (SF-295 CNS): 2.53 µM

SMILES: CN(C)CC(C(=O)Cc1ccccc1)c1ccccc1 (configuration not stated)
- GI50 (786-0 renal): 2.18 µM
- TGI (786-0 renal): 4.51 µM
- GI50 (BT-549 breast): 3.18 µM
- TGI (BT-549 breast): 8.74 µM
- GI50 (CAKI-1 renal): 1.57 µM
- TGI (CAKI-1 renal): 3.01 µM
- GI50 (KM12 colon): 1.07 µM
- TGI (KM12 colon): 2.49 µM
- GI50 (M14 melanoma): 2.34 µM
- TGI (M14 melanoma): 4.97 µM
- GI50 (MALME-3M melanoma): 1.74 µM
- TGI (MALME-3M melanoma): 3.89 µM
- GI50 (NCI-H460 lung): 4.24 µM
- TGI (NCI-H460 lung): 14.8 µM
- GI50 (OVCAR-8 ovarian): 6.75 µM
- TGI (OVCAR-8 ovarian): 23.1 µM
- GI50 (SF-295 CNS): 11.3 µM
- TGI (SF-295 CNS): 27.8 µM
- GI50 (UACC-62 melanoma): 6.16 µM
- TGI (UACC-62 melanoma): 20.1 µM

SMILES: CN1CCN(c2nc(NCCCNc3ccnc4cc(Cl)ccc34)c3ccccc3n2)CC1
- GI50 (786-0 renal): 3.58 µM
- TGI (786-0 renal): 12.9 µM
- GI50 (BT-549 breast): 4.4 µM
- TGI (BT-549 breast): 16.7 µM
- GI50 (KM12 colon): 4.02 µM
- TGI (KM12 colon): 16.1 µM
- GI50 (M14 melanoma): 1.89 µM
- TGI (M14 melanoma): 3.77 µM
- GI50 (MALME-3M melanoma): 1.98 µM
- TGI (MALME-3M melanoma): 3.84 µM
- GI50 (NCI-H460 lung): 3.53 µM
- TGI (NCI-H460 lung): 13.4 µM
- GI50 (OVCAR-8 ovarian): 5.92 µM
- TGI (OVCAR-8 ovarian): 20.7 µM
- GI50 (SF-295 CNS): 2.05 µM
- TGI (SF-295 CNS): 4.92 µM
- GI50 (UACC-62 melanoma): 1.95 µM
- TGI (UACC-62 melanoma): 3.86 µM

SMILES: Cc1ccc(C(SCC(N)C(=O)O)(c2ccccc2)c2ccccc2)cc1 (configuration not stated)
- GI50 (786-0 renal): 0.175 µM
- TGI (786-0 renal): 2.43 µM
- GI50 (BT-549 breast): 0.145 µM
- TGI (BT-549 breast): > 69.7 µM
- GI50 (CAKI-1 renal): 0.151 µM
- TGI (CAKI-1 renal): > 100 µM
- GI50 (KM12 colon): 0.0983 µM
- TGI (KM12 colon): 5.98 µM
- GI50 (M14 melanoma): 0.0247 µM
- TGI (M14 melanoma): 0.0663 µM
- TGI (MALME-3M melanoma): > 100 µM
- GI50 (NCI-H460 lung): 0.0718 µM
- TGI (NCI-H460 lung): 14.8 µM
- GI50 (OVCAR-8 ovarian): 0.139 µM
- TGI (OVCAR-8 ovarian): > 100 µM
- GI50 (SF-295 CNS): 0.0465 µM
- TGI (SF-295 CNS): > 100 µM
- GI50 (UACC-62 melanoma): 0.0561 µM
- TGI (UACC-62 melanoma): > 59.4 µM

SMILES: C=C(CC(=O)O)C(=O)O (tested in a mixture with another compound)
- GI50 (786-0 renal): > 50 µg/mL
- TGI (786-0 renal): > 50 µg/mL
- GI50 (BT-549 breast): > 50 µg/mL
- TGI (BT-549 breast): > 50 µg/mL
- GI50 (CAKI-1 renal): > 50 µg/mL
- TGI (CAKI-1 renal): > 50 µg/mL
- GI50 (KM12 colon): > 50 µg/mL
- TGI (KM12 colon): > 50 µg/mL
- GI50 (M14 melanoma): > 50 µg/mL
- TGI (M14 melanoma): > 50 µg/mL
- GI50 (MALME-3M melanoma): > 50 µg/mL
- TGI (MALME-3M melanoma): > 50 µg/mL
- GI50 (NCI-H460 lung): > 50 µg/mL
- TGI (NCI-H460 lung): > 50 µg/mL
- GI50 (OVCAR-8 ovarian): > 50 µg/mL
- TGI (OVCAR-8 ovarian): > 50 µg/mL
- GI50 (SF-295 CNS): > 50 µg/mL
- TGI (SF-295 CNS): > 50 µg/mL
- GI50 (UACC-62 melanoma): > 50 µg/mL
- TGI (UACC-62 melanoma): > 50 µg/mL

SMILES: COc1cc(-c2cc(/C=C/C(=O)c3ccc(Cl)c(Cl)c3)[nH]n2)cc(OC)c1OC
- GI50 (786-0 renal): 10.1 µM
- TGI (786-0 renal): 68 µM
- GI50 (BT-549 breast): 8.4 µM
- TGI (BT-549 breast): 29.2 µM
- GI50 (CAKI-1 renal): 16.9 µM
- TGI (CAKI-1 renal): > 100 µM
- GI50 (KM12 colon): 3.37 µM
- TGI (KM12 colon): > 100 µM
- GI50 (M14 melanoma): 18.2 µM
- TGI (M14 melanoma): > 100 µM
- GI50 (MALME-3M melanoma): 29.2 µM
- TGI (MALME-3M melanoma): > 100 µM
- GI50 (NCI-H460 lung): 4.91 µM
- TGI (NCI-H460 lung): 36.6 µM
- GI50 (OVCAR-8 ovarian): 6.3 µM
- TGI (OVCAR-8 ovarian): 34 µM
- GI50 (UACC-62 melanoma): 18.8 µM
- TGI (UACC-62 melanoma): > 100 µM

SMILES: CC(C)CC(Nc1c(O)ccc2ccccc12)C(=O)O (configuration not stated)
- TGI (786-0 renal): > 100 µM
- TGI (BT-549 breast): 83.6 µM
- TGI (CAKI-1 renal): 47.4 µM
- TGI (KM12 colon): > 100 µM
- TGI (M14 melanoma): > 100 µM
- TGI (MALME-3M melanoma): 39.2 µM
- TGI (NCI-H460 lung): > 100 µM
- TGI (SF-295 CNS): 66.6 µM
- TGI (UACC-62 melanoma): 72.3 µM

SMILES: C/C(=N\NC(=S)N1CC2CCC(CC2)C1)c1cccc(C)n1
- TGI (786-0 renal): 11.7 µM
- TGI (BT-549 breast): 10.3 µM
- TGI (CAKI-1 renal): 14.2 µM
- TGI (KM12 colon): 14.8 µM
- GI50 (M14 melanoma): 0.477 µM
- TGI (M14 melanoma): 5.55 µM
- GI50 (MALME-3M melanoma): 0.605 µM
- TGI (MALME-3M melanoma): 17.8 µM
- GI50 (NCI-H460 lung): 0.0633 µM
- TGI (NCI-H460 lung): 5.53 µM
- GI50 (OVCAR-8 ovarian): 0.229 µM
- TGI (OVCAR-8 ovarian): 13 µM
- TGI (SF-295 CNS): 13.1 µM
- TGI (UACC-62 melanoma): 6.85 µM

SMILES: O=c1c(Br)cc2c(-c3ccccc3)c3cc(Br)c(O)c(Br)c3oc-2c1Br
- TGI (786-0 renal): > 100 µM
- TGI (CAKI-1 renal): > 100 µM
- TGI (KM12 colon): > 100 µM
- TGI (M14 melanoma): > 100 µM
- TGI (MALME-3M melanoma): > 100 µM
- TGI (NCI-H460 lung): > 100 µM
- TGI (OVCAR-8 ovarian): > 100 µM
- TGI (SF-295 CNS): > 100 µM
- TGI (UACC-62 melanoma): > 100 µM

SMILES: COC(=O)N/N=C(/CCC(=O)Nc1ccc(C)c(C)c1)CC(=O)C(C)(C)C
- TGI (786-0 renal): > 100 µM
- TGI (CAKI-1 renal): > 100 µM
- TGI (KM12 colon): > 100 µM
- TGI (M14 melanoma): > 100 µM
- TGI (MALME-3M melanoma): > 100 µM
- TGI (NCI-H460 lung): > 100 µM
- TGI (OVCAR-8 ovarian): > 100 µM
- TGI (SF-295 CNS): > 100 µM
- TGI (UACC-62 melanoma): > 100 µM
